Results taken from PubChem BioAssay AID1259411 (Chemical Carcinogenesis Research Information System (CCRIS), 2018).
The source made the active and inactive calls. No rule for the calls is given here.

System: rodent carcinogenicity bioassays, tumor incidence
Assay: CCRIS carcinogenicity studies
Summary of the method: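 Archive of carcinogenicity, mutagenicity, tumor promotion and tumor inhibition results drawn from journals, NCI reports and other sources, expert-reviewed; covers 1985-2011 and is no longer updated.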

Q: What does the source list for `CCCCN(CC)c1c([N+](=O)[O-])cc(C(F)(F)F)cc1[N+](=O)[O-]`?
A: carcinogen call (Species: Mouse, Strain/Sex: B6C3F1/Female, Route: Oral, Dose: 0, 0.005, 0.03, 0.15% in diet for 2 yrs in 2 replicates of 30 mice/sex/group, Dose: 0, 0.005, 0.03, 0.15% in diet for 2 yrs in 2 replicates of 30 mice/sex/group): inactive; negative; slight but not statistically elevated incidence of total neoplastic tu; carcinogen call (Species: Mouse, Strain/Sex: B6C3F1/Male, Route: Oral, Dose: 0, 0.005, 0.03, 0.15% in diet for 2 yrs in 2 replicates of 30 mice/sex/group, Dose: 0, 0.005, 0.03, 0.15% in diet for 2 yrs in 2 replicates of 30 mice/sex/group): inactive; negative; slight but not statistically elevated incidence of total neoplastic t; carcinogen call (Species: Rat, Strain/Sex: CDF (F344)CrlBR/Female (50/sex/group), Route: Oral, Dose: 0, 10, 100, 2500, 5000 ppm (about 0; 0.7; 6.8; 168; 331 mg/kg/day ) in diet for 104 wks, Dose: 0, 10, 100, 2500, 5000 ppm (about 0; 0.7; 6.8; 168; 331 mg/kg/day ) in diet for 104 wks, Tumor Site: Type of Lesion: Thyroid: thyroid follicular adenomas and carcinomas (0/50; 0/50; 1/50; 5/50; 4/50)): active; positive; ca dpr judged the study as showing possible adverse effects; carcinogen call (Species: Rat, Strain/Sex: CDF (F344)CrlBR/Male (50/sex/group), Route: Oral, Dose: 0, 10, 100, 2500, 5000 ppm (about 0; 0.5; 5.4; 136; 275 mg/kg/day ) in diet for 104 wks, Dose: 0, 10, 100, 2500, 5000 ppm (about 0; 0.5; 5.4; 136; 275 mg/kg/day ) in diet for 104 wks, Tumor Site: Type of Lesion: Thyroid: thyroid follicular adenomas and carcinomas (1/50; 1/50; 7/50; 8/50) Liver: Hepatocellular tumors (primari): active; positive; ca dpr judged the study as showing possible adverse effects

Q: For `COc1cc2c(c3ccc4ccccc4c13)CCC2`, which carcinogen call (Species: MOUSE, Strain/Sex: TO/MALE, FEMALE, Route: DERMAL, Dose: 0, 50 UG (10 µL OF A 0.5% W/V TOLUENE SOLUTION) 2/WK FOR 70 WK (STUDY DURATION: 70 WK), Tumor Site: Type of Lesion: SKIN: PAPILLOMA OR CARCINOMA) is on record?
A: active; positive

Q: For `CCOP(=S)(OCC)SCCSCC`, which carcinogen call (Species: Mouse, Strain/Sex: CD/Female (60/Group with 10 used as replacements), Route: Oral, Dose: 0, 1, 4, 16 ppm 98.2% disulfoton in diet for 99 wks, study duration 99 wks, Dose: 0, 1, 4, 16 ppm 98.2% disulfoton in diet for 99 wks, study duration 99 wks) is on record?
A: inactive; negative

Q: And the carcinogen call (Species: Mouse, Strain/Sex: CD/Male (60/Group with 10 used as replacements), Route: Oral, Dose: 0, 1, 4, 16 ppm 98.2% disulfoton in diet for 99 wks, study duration 99 wks, Dose: 0, 1, 4, 16 ppm 98.2% disulfoton in diet for 99 wks, study duration 99 wks)?
A: inactive; negative

Q: What about the carcinogen call (Species: Rat, Strain/Sex: F344/Female (50/Group), Route: Oral, Dose: 0, 1, 4, 16 ppm 97.6% disulfoton in diet for 105 wks, study duration 105 wks, Dose: 0, 1, 4, 16 ppm 97.6% disulfoton in diet for 105 wks, study duration 105 wks) of the same compound?
A: inactive; negative

Q: What about the carcinogen call (Species: Rat, Strain/Sex: F344/Male (50/Group), Route: Oral, Dose: 0, 1, 4, 16 ppm 97.6% disulfoton in diet for 105 wks, study duration 105 wks, Dose: 0, 1, 4, 16 ppm 97.6% disulfoton in diet for 105 wks, study duration 105 wks) of the same compound?
A: inactive; negative

Q: What does the source list for `NC(=O)c1cnccn1`?
A: carcinogen call (Species: MOUSE, Strain/Sex: B6C3F1/MALE, Route: ORAL, Dose: 0, 5000, 10000 PPM IN DIET, Dose: 0, 5000, 10000 PPM IN DIET): inactive; negative; carcinogen call (Species: RAT, Strain/Sex: F344/FEMALE, Route: ORAL, Dose: 0, 5000, 10000 PPM IN DIET, Dose: 0, 5000, 10000 PPM IN DIET): inactive; negative; carcinogen call (Species: RAT, Strain/Sex: F344/MALE, Route: ORAL, Dose: 0, 5000, 10000 PPM IN DIET, Dose: 0, 5000, 10000 PPM IN DIET): inactive; negative

Q: With `Nc1ccc(N)c(Cl)c1` as the compound, how does the carcinogen call (Species: MOUSE, Strain/Sex: B6C3F1/FEMALE, Route: ORAL, Dose: 0, 0.3, 0.6% OF DIET, Dose: 0, 0.3, 0.6% OF DIET) read?
A: inactive; negative

Q: What about the carcinogen call (Species: MOUSE, Strain/Sex: B6C3F1/MALE, Route: ORAL, Dose: 0, 0.3, 0.6% OF DIET, Dose: 0, 0.3, 0.6% OF DIET) of the same compound?
A: inactive; negative

Q: What about the carcinogen call (Species: RAT, Strain/Sex: F344/FEMALE, Route: ORAL, Dose: 0, 0.15, 0.30% OF DIET, Dose: 0, 0.15, 0.30% OF DIET) of the same compound?
A: inactive; negative

Q: And the carcinogen call (Species: RAT, Strain/Sex: F344/MALE, Route: ORAL, Dose: 0, 0.15, 0.30% OF DIET, Dose: 0, 0.15, 0.30% OF DIET)?
A: inactive; negative

Q: Which carcinogen call (Species: MOUSE, Strain/Sex: B6AKF1/MALE,FEMALE, Route: GAVAGE, ORAL, Dose: 464 MG/KG FROM D 7-28 OF LIFE THEN 1112 MG/KG IN DIET, Tumor Site: Type of Lesion: LIVER: HEPATOCELLULAR TUMOR) does the source give for `C=CCc1ccc2c(c1)OCO2` here?
A: active; positive

Q: And the carcinogen call (Species: MOUSE, Strain/Sex: B6C3F1/MALE,FEMALE, Route: GAVAGE, ORAL, Dose: 464 MG/KG FROM D 7-28 OF LIFE THEN 1112 MG/KG IN DIET, Tumor Site: Type of Lesion: LIVER: HEPATOCELLULAR TUMOR)?
A: active; positive

Q: What about the carcinogen call (Species: MOUSE, Strain/Sex: BALB/MALE, Route: ORAL, Dose: 0, 4000 PPM IN DIET FOR 52 WK (STUDY DURATION: 75 WK), Tumor Site: Type of Lesion: LIVER: HEPATOCELLULAR CARCINOMA, HEPATOCELLULAR ADENOMA) of the same compound?
A: active; positive

Q: What about the carcinogen call (Species: MOUSE, Strain/Sex: CD-1/MALE, Route: ORAL, Dose: 4000, 5000 MG/KG IN DIET FOR 13 MO, Tumor Site: Type of Lesion: LIVER: HEPATOCELLULAR CARCINOMA) of the same compound?
A: active; positive

Q: What about the carcinogen call (Species: MOUSE, Strain/Sex: CD-1/MALE, Route: SUBCUTANEOUS, Dose: 0.66, 6.6 MG (TOTAL DOSES) IN TRICAPRYLIN IN 3 WK, Tumor Site: Type of Lesion: LIVER) of the same compound?
A: active; positive

Q: What about the carcinogen call (Species: MOUSE, Strain/Sex: SWISS/FEMALE, Route: SUBCUTANEOUS, Dose: 0.66, 6.6 MG (TOTAL DOSES) IN TRICAPRYLIN IN 3 WK, Tumor Site: Type of Lesion: LUNG: ADENOMA, ADENOCARCINOMA) of the same compound?
A: active; positive

Q: What about the carcinogen call (Species: MOUSE, Strain/Sex: SWISS/MALE, Route: SUBCUTANEOUS, Dose: 0.66, 6.6 MG (TOTAL DOSES) IN TRICAPRYLIN IN 3 WK, Tumor Site: Type of Lesion: LIVER: HEPATOMA) of the same compound?
A: active; positive

Q: And the carcinogen call (Species: RAT, Strain/Sex: OSBORNE-MENDEL/MALE,FEMALE, Route: ORAL, Dose: 100, 500, 1000, 5000 MG/KG IN DIET FOR 2 YR, Dose: 100, 500, 1000, 5000 MG/KG IN DIET FOR 2 YR, Tumor Site: Type of Lesion: LIVER: HEPATOCELLULAR CARCINOMA, CHOLANGIOCARCINOMA)?
A: active; positive

Q: For `Clc1ccccc1Cl`, which carcinogen call (Species: MOUSE, Strain/Sex: B6C3F1/FEMALE, Route: GAVAGE, Dose: 0, 60, 120 MG/KG BODY WT IN CORN OIL 5 D/WK FOR 103 WK, Dose: 0, 60, 120 MG/KG BODY WT IN CORN OIL 5 D/WK FOR 103 WK) is on record?
A: inactive; negative

Q: What about the carcinogen call (Species: MOUSE, Strain/Sex: B6C3F1/MALE, Route: GAVAGE, Dose: 0, 60, 120 MG/KG BODY WT IN CORN OIL 5 D/WK FOR 103 WK, Dose: 0, 60, 120 MG/KG BODY WT IN CORN OIL 5 D/WK FOR 103 WK) of the same compound?
A: inactive; negative

Q: And the carcinogen call (Species: RAT, Strain/Sex: F344/FEMALE, Route: GAVAGE, Dose: 0, 60, 120 MG/KG BODY WT IN CORN OIL 5 D/WK FOR 103 WK, Dose: 0, 60, 120 MG/KG BODY WT IN CORN OIL 5 D/WK FOR 103 WK)?
A: inactive; negative

Q: And the carcinogen call (Species: RAT, Strain/Sex: F344/MALE, Route: GAVAGE, Dose: 0, 60, 120 MG/KG BODY WT IN CORN OIL 5 D/WK FOR 103 WK, Dose: 0, 60, 120 MG/KG BODY WT IN CORN OIL 5 D/WK FOR 103 WK)?
A: inactive; negative

Q: How did the carcinogen call (Species: MOUSE, Strain/Sex: B6C3F1/FEMALE, Route: ORAL, Dose: 0, 62.5, 125 PPM IN DIET FOR 80 WK (STUDY DURATION: 92-93 WK), Dose: 0, 62.5, 125 PPM IN DIET FOR 80 WK (STUDY DURATION: 92-93 WK)) turn out when `COP(=S)(OC)SCn1nnc2ccccc2c1=O` was run?
A: inactive; negative

Q: And the carcinogen call (Species: MOUSE, Strain/Sex: B6C3F1/MALE, Route: ORAL, Dose: 0, 31.3, 62.5 PPM IN DIET FOR 80 WK (STUDY DURATION: 92-93 WK), Dose: 0, 31.3, 62.5 PPM IN DIET FOR 80 WK (STUDY DURATION: 92-93 WK))?
A: inactive; negative

Q: What about the carcinogen call (Species: RAT, Strain/Sex: OSBORNE-MENDEL/FEMALE, Route: ORAL, Dose: 0, 62.5, 125 PPM IN DIET FOR 80 WK (STUDY DURATION: 114-115 WK), Dose: 0, 62.5, 125 PPM IN DIET FOR 80 WK (STUDY DURATION: 114-115 WK)) of the same compound?
A: inactive; negative

Q: What about the carcinogen call (Species: RAT, Strain/Sex: OSBORNE-MENDEL/MALE, Route: ORAL, Dose: 0, 78, 156 PPM IN DIET FOR 80 WK (STUDY DURATION: 114-115 WK), Dose: 0, 78, 156 PPM IN DIET FOR 80 WK (STUDY DURATION: 114-115 WK), Tumor Site: Type of Lesion: THYROID GLAND: TUMOR, PANCREAS: ISLET CELL ADENOMA OR CARCINOMA) of the same compound?
A: equivocal

Q: And the carcinogen call (Species: Rat, Strain/Sex: Wistar/Female, Route: Oral, Dose: 0, 15, 45 ppm (vehicle= 1% DAB8 peanut oil) in feed for 24 mo., Dose: 0, 15, 45 ppm (vehicle= 1% DAB8 peanut oil) in feed for 24 mo.)?
A: inactive; negative; purity = 87.2%

Q: And the carcinogen call (Species: Rat, Strain/Sex: Wistar/Male, Route: Oral, Dose: 0, 15, 45 ppm (vehicle= 1% DAB8 peanut oil) in feed for 24 mo., Dose: 0, 15, 45 ppm (vehicle= 1% DAB8 peanut oil) in feed for 24 mo.)?
A: inactive; negative; purity = 87.2%
